≈ marks a conversion by molar mass, not a printed value.
Columns and labels:
[1] = test system: H. influen.; experiment: Susceptibility testing (MIC, CLSI microdilution); type: cell-based, Haemophilus influenzae; conditions: 20 h at 35° C., unit assumed
Method: (§1) Compounds were tested following the microdilution method of CLSI (Clinical and Laboratory Standards Institute. Methods for dilution antimicrobial susceptibility tests for bacteria that grow aerobically; Approved standard—sixth edition. CLSI document M7-A5, CLSI, Wayne, Pa. 2003). Assays were performed in sterile plastic 96-well microtiter trays with round bottom wells (Greiner).
(§2) Stock solutions of test compounds and control antibiotics were prepared at 10 mg/ml in DMSO. Serial 2-fold dilutions of each drug were performed in a microtiter plate across each row using DMSO as solvent at 100-fold the desired final concentration. Wells in columns #1-11 contain drug and column #12 was kept as a growth control for the organism with no drug. Each well in the mother plate was diluted with sterile deionized water and DMSO, mixed, and volumes of 10 μl distributed to each well in the resulting assay plates.
(§3) Stock cultures were prepared using the Microbank™ method (Pro-Lab Diagnostics) and stored at −80° C. To propagate each strain, one bead was removed from the frozen vial and aseptically streaked onto Trypticase Soy Agar (Difco) which were incubated at 35° C. Standardized inocula were prepared using the direct colony suspension method according to CLSI guidelines (Clinical and Laboratory Standards Institute. Methods for dilution antimicrobial susceptibility tests for bacteria that grow aerobically; Approved standard—sixth edition. CLSI document M7-A5, CLSI, Wayne, Pa., 2003). Isolated colonies were selected from an 18-24 hr agar plate and resuspended in 0.9% sterile saline to match a 0.5 McFarland turbidity standard using a calorimeter (Vitek) at 80% of transmitance. The suspension was used within 15 minutes of preparation.
(§4) Mueller-Hinton Broth (MHB) (Difco) was prepared at a 1.1× concentration and supplemented with Ca++ and Mg++ as recommended by CLSI. For each organism, the standardized suspension was diluted 1:180 into appropriate growth medium in a sterile reservoir. After mixing, wells in the drug-containing assay plates were inoculated with a volume of 90 μl. Thus, for each minimum inhibitory concentration (MIC) determination, each well contains a final volume of 100 μl with an inoculum size of approximately 5×10^5 colony forming units (cfu)/ml and no more than 1% DMSO.
(§5) The completed microtiter plates were incubated 20 h at 35° C. in ambient air. Optical density of each well was determined at 600 nm using a VersaMax Microplate reader (Molecular Devices, Sunnyvale, Calif.). The MIC was defined as the lowest drug concentration causing complete suppression of visible bacterial growth.

[2] = test system: E. coli (2); experiment: Susceptibility testing (MIC, CLSI microdilution); type: cell-based, Escherichia coli; conditions: 20 h at 35° C., in µg/mL (unit assumed)
Method: as §1, §2, §3, §4, §5

[3] = test system: E. coli tolC; experiment: Susceptibility testing (MIC, CLSI microdilution); type: cell-based, Escherichia coli; conditions: 20 h at 35° C., unit assumed
Method: as §1, §2, §3, §4, §5

[4] = target: P. ae LpxC enzyme (Pseudomonas aeruginosa, UniProt P47205); experiment: Enzyme inhibition testing (fluorescamine assay); type: biochemical; conditions: read-out: ENZYME (percent inhibition); for inhibition at 0.5 µg/mL: @0.5 μg/ml; for inhibition at 10 µg/mL: @10 μg/ml
Method: Compounds were tested based on a published method (Wang W., 2001, Anal Biochem, 290, 338-46) with modifications. Enzyme assays were performed in the assay buffer (50 mM HEPES, pH8, 0.005% Brij, 50 μM ZnSO4, 1 mg/ml BSA) in 96-well V-bottom microtiter plates.
Stock solutions of test compounds and control antibiotics are prepared at 10 mg/ml in DMSO and are diluted in the assay buffer to 6-fold the final testing concentration. 5 μl compound dilution is distributed to the well of the assay plate. EDTA is used as positive control and the final concentration in assay is 12.5 mM.
P. ae LpxC enzyme dilution in the assay buffer is added to the compound in plate and pre-incubated with the compound at room temperature for 10 min. LpxC substrate is added to initiate the enzyme reaction and the final enzyme and substrate concentrations are 1.2 μM and 0.4 mM, respectively. The reaction continues at RT for 4 hrs before diluted with 45 μl of Borate buffer (0.4 M, pH9), followed by addition of 40 μl derivatization reagent (fluorescamine 2 mg/ml DMF). This mixture is incubated at RT for 10 min followed by addition of 150 μl DMF/H2O (1:1). The resulting solution is loaded onto Millipore filter unit (Microcon 10 k MWCO) and spun at 13 k rpm on bench top centrifuge for 15 min. 100 μl of this filtrate is transferred to a low fluorescence clear-bottom 96-well plate (Corning) and the fluorescence is detected at ex360 nm and em465 nm on a Tecan fluorescence plate reader. The percent inhibition is calculated based on EDTA produces 100% inhibition and negative control produces 100% activity.

[5] = test system: K. pneu.; experiment: Susceptibility testing (MIC, CLSI microdilution); type: cell-based, Klebsiella pneumoniae; conditions: 20 h at 35° C., unit assumed
Method: as §1, §2, §3, §4, §5

[6] = test system: P. aerug. (2); experiment: Susceptibility testing (MIC, CLSI microdilution); type: cell-based, Pseudomonas aeruginosa; conditions: 20 h at 35° C., in µg/mL (unit assumed)
Method: as §1, §2, §3, §4, §5

[7] = test system: P. aerug. Hypersuc; experiment: Susceptibility testing (MIC, CLSI microdilution); type: cell-based, Pseudomonas aeruginosa; conditions: 20 h at 35° C., Δ efflux, hypersusceptible strain, unit assumed
Method: as §1, §2, §3, §4, §5

Chain of P. ae LpxC enzyme (P47205 whole entry): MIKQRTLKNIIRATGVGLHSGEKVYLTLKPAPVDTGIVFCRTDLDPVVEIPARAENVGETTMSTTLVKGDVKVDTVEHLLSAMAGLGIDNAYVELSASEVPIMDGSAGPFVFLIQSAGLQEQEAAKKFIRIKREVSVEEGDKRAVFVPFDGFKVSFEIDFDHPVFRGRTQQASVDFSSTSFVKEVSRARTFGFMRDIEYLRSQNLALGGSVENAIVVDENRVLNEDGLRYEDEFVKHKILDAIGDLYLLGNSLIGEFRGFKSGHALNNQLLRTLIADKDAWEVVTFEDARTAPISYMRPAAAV

SMILES	MIC H. influen. [1]	MIC E. coli (2) [2]	MIC E. coli tolC [3]	inhibition at 0.5 µg/mL [4]	MIC K. pneu. [5]	MIC P. aerug. (2) [6]	MIC P. aerug. Hypersuc [7]	inhibition at 10 µg/mL [4]	inhibition at 1 µg/mL ([4]; @1 μg/ml)
CCCc1ccc(-c2ccc(C(=O)N3CC[C@H](NC=O)[C@H]3C(=O)NO)cc2)cc1 [Compound 4, (2S,3S)-3-Formamido-N-hydroxy-1-(4′-propylbiphenylcarbonyl)pyrrolidine-2-carboxamide]	> 64 µg/mL	>64	32 µg/mL (≈ 80.9 µM)	69%	> 64 µg/mL	>64	64 µg/mL (≈ 162 µM)	–	–
CCCc1ccc(-c2ccc(C(=O)N3CC[C@H](NC)[C@H]3C(=O)NO)cc2)cc1 [Compound 5]	32 µg/mL (≈ 83.9 µM)	64	32 µg/mL (≈ 83.9 µM)	29%	> 64 µg/mL	>64	64 µg/mL (≈ 168 µM)	–	–
CCCc1ccc(-c2ccc(C(=O)N3CC[C@H](F)[C@H]3C(=O)NO)cc2)cc1 [Compound 6]	> 64 µg/mL	>64	16 µg/mL (≈ 43.2 µM)	87%	32 µg/mL (≈ 86.4 µM)	>64	32 µg/mL (≈ 86.4 µM)	–	–
CCCc1ccc(-c2ccc(C(=O)N3CC[C@@H](OC)[C@H]3C(=O)NO)cc2)cc1 [Compound 8]	64 µg/mL (≈ 167 µM)	>64	32 µg/mL (≈ 83.7 µM)	–	> 64 µg/mL	>64	> 64 µg/mL	21%	–
CCCc1ccc(-c2ccc(C(=O)N3C[C@@](O)(COC)C[C@H]3C(=O)NO)cc2)cc1 [Compound 9, (2S,4R)-N,4-Dihydroxy-4-(methoxymethyl)-1-(4′-propylbiphenylcarbonyl)pyrrolidine-2-carboxamide]	> 64 µg/mL	>64	> 64 µg/mL	–	> 64 µg/mL	>64	32 µg/mL (≈ 77.6 µM)	–	57%
CCCc1ccc(-c2ccc(C(=O)N3C[C@H](O)[C@H](O)[C@H]3C(=O)NO)cc2)cc1 [Compound 10]	> 64 µg/mL	>64	64 µg/mL (≈ 166 µM)	60%	> 64 µg/mL	>64	64 µg/mL (≈ 166 µM)	–	–
CCCc1ccc(-c2ccc(C(=O)N3C[C@@H](N)[C@H](O)[C@H]3C(=O)NO)cc2)cc1 [Compound 11, (2S,3S,4R)-4-Amino-N,3-dihydroxy-1-(4′-propylbiphenylcarbonyl)pyrrolidine-2-carboxamide]	32 µg/mL (≈ 83.5 µM)	>64	32 µg/mL (≈ 83.5 µM)	84%	> 64 µg/mL	64	16 µg/mL (≈ 41.7 µM)	–	–
CCCc1ccc(-c2ccc(C(=O)N3CCS[C@H]3C(=O)NO)cc2)cc1 [Compound 13]	64 µg/mL (≈ 173 µM)	>64	> 64 µg/mL	–	32 µg/mL (≈ 86.4 µM)	64	16 µg/mL (≈ 43.2 µM)	71%	–

From patent publication US8088804B2, “N-hydroxyamide derivatives possessing antibacterial activity” (Pfizer Inc., priority 2005, dated 2012)
